Calls of active or inactive are those of the source. No cut-off for these calls is given here.
Assays:
Staphylococcus aureus = assay: Antibacterial activity against methicillin-resistant Staphylococcus aureus 3 infected in KM mouse assessed as reduction in size of abscesses at 5 mg/kg administered into skin infection site measured after 24 hrs; assay type: functional, organism-based
L02 = assay: Cytotoxicity against human L02 cells assessed as reduction in cell viability at 64 ug/ml incubated for 24 hrs by CCK-8 assay; assay type: toxicity, cell-based; conditions: l02, 24 h, dose 64 µg/ml
[1] = Toxicity in KM mouse assessed as effect on hemoglobin level at 20 mg/kg, sc administered into middle dorsum and measured after 24 hrs by routine blood test; assay type: organism-based; conditions: in vivo
[2] = Toxicity in KM mouse assessed as pathological changes in heart at 20 mg/kg, sc administered into middle dorsum and measured after 24 hrs by H and E staining based analysis; assay type: organism-based; conditions: in vivo
[3] = Toxicity in KM mouse infected with methicillin-resistant Staphylococcus aureus 3 assessed as vacuolar degeneration in the kidneys at 5 to 10 mg/kg administered into skin infection site measured after 24 hrs by H and E staining based analysis; assay type: organism-based; conditions: in vivo, topical_or_ocular, dose 5-10 mg/kg

With `CCCN(CCC)C(=O)C[N+](C)(C)CCCCOc1ccc(/C=C/C(=O)c2c(OC)cc3c(c2O)C=CC(C)(C)O3)cc1.[Br-]` the Activity (Staphylococcus aureus) was “Active”, the Activity (L02) was “Non-Toxic” and the Activity [1] was “Non-Toxic”. For the same molecule, the Activity [2] was “Non-Toxic” and the Activity [3] was “Non-Toxic”.

Reference: ChEMBL document CHEMBL5316298, “Discovery of Amphiphilic Xanthohumol Derivatives as Membrane-Targeting Antimicrobials against Methicillin-Resistant Staphylococcus aureus” (J Med Chem, 2023)
